Results reported in US11052154B2, “Ras protein degradation inducing molecule and pharmaceutical composition” (Tokyo University of Science Foundation, priority 2016, dated 2021).

What was measured:
wild-type K-Ras protein = molecular target: T1, wild-type K-Ras protein (Homo sapiens, UniProt P01116); test: Degradation (knockdown) of wild-type K-Ras protein forcibly expressed in HeLa cells, FACS analysis; format: cell-based; details: FIG. 1
T1 construct: expressed in transfected cells; host or cells: HeLa
T1 sequence (P01116 1-188 isoform P01116-2): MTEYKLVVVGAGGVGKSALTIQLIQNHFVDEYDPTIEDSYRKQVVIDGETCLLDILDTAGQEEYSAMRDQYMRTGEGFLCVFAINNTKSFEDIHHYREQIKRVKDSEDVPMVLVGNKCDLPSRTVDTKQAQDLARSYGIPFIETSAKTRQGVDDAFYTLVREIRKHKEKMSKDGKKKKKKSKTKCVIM
Protocol: In Example 2, degradation (knockdown) of a wild-type K-Ras protein forcibly expressed in HeLa cells (human cervical cancer cells) through TUS-007 was evaluated by FACS analysis. […] The full-length cDNA clone (Accession No. AK292510) of a human K-ras gene was purchased from Independent Administrative Institution, the National Institute of Technology and Evaluation. PCR amplification was performed using KOD-Plus-Neo (TOYOBO CO., LTD) as a PCR enzyme. The plasmid was introduced into HeLa cells to transiently overexpress a wild-type K-Ras protein (specifically, a fusion protein of a wild-type K-Ras protein and GFP via a HA tag) or a DsRed protein for comparison in the […] (Wako Pure Chemical Industries, Ltd.) as a transfection reagent was used to introduce the plasmid into HeLa cells by a routine procedure. […] Culture was performed for 40 hours after introduction of the plasmid, and then TUS-007 was added to HeLa cells as follows. […] A BD FACSCantoTM II (BD Biosciences) was used for flow cytometry, and the expression levels of GFP and the DsRed protein in the cells were quantified. […] The GFP/DsRed ratio per cell was computed using an analysis software FlowJoTM (TOMY Digital Biology Co., Ltd.), and degradation (knockdown) of the wild-type K-Ras protein by TUS-007 was determined from a shift in a graph.

[1] = molecular target: T2, G12D mutant K-Ras protein (Homo sapiens, UniProt P01116, G12D); test: Degradation (knockdown) of G12D mutant K-Ras protein forcibly expressed in HeLa cells, FACS analysis; format: cell-based
T2 construct: expressed in transfected cells; host or cells: HeLa
T2 sequence (P01116 1-188 isoform P01116-2 G12D): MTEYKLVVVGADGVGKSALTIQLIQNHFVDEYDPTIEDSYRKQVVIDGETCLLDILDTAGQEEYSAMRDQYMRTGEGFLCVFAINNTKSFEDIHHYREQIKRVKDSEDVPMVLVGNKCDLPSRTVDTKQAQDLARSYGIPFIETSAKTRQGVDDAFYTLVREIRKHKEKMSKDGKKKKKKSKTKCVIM
Protocol: HeLa cells into which the plasmid had been introduced were seeded in a 24-well plate at a cell density of 4×10^4 cells/well, and then cultured under conditions of 37° C. and 5 vol % CO2 for 40 hours.
DMSO was used as a control.

SW1990 cells = test: Anti-tumor effect in mice subcutaneously implanted with human pancreatic cancer cells (SW1990 cells); format: in vivo, mouse; details: BALB/c nu/nu mice, SW1990 subcutaneous, oral 80 mg/kg once every 3 days, 7 doses, vs Vehicle; FIG. 9A
Protocol: In Example 10, TUS-007 was administered to mice subcutaneously implanted with human pancreatic cancer cells (SW1990 cells), and an anti-tumor effect was evaluated.
To the subcutis of T-cell deficient mice (BALB/cAJcl-nu/nu, 4 weeks old, female) (CLEA Japan, Inc.), 0.1 mL of cell suspension in which SW1990 cells were suspended in PBS so as to be 1×10^7 cells/mL was implanted using a 26-gauge injection needle (TERUMO CORPORATION).
Immediately before administration, TUS-007 was dissolved in DMSO, 0.5 mass % carboxymethyl cellulose (Code No. 039-01335, Wako Pure Chemical Industries, Ltd.) solution was added so that the concentration of DMSO became 2.5 vol %, followed by pulverization by ultrasonic treatment to prepare a suspension of TUS-007. When the tumors of mice with subcutaneously implanted SW1990 cells grew to a size of approximately 100 mm^3, the prepared TUS-007 suspension was orally administered by gavage with a gastric tube (Code No. 5202K, Fuchigami Kikai) at a dose of 80 mg/kg body weight once every 3 days for a total of 7 doses (n=6 to 9). As a control (Vehicle), 0.5 mass % carboxymethyl cellulose solution containing 2.5 vol % DMSO was administered in the same manner.
The tumor volume (mm^3) was calculated by measuring the tumor size using a caliper, and using the formula (minor axis diameter)^2×major axis diameter/2.

[2] = Acute toxicity, single oral dose in Jcl:ICR mice; format: in vivo, mouse
Protocol: Acute toxicity when TUS-007 was orally administered to Jcl:ICR mice (8 weeks old, female) (CLEA Japan, Inc.) in a single dose of 80 mg/kg body weight, 300 mg/kg body weight, or 1000 mg/kg body weight was evaluated.

SMILES: CCC(C)[C@H](NC(=O)CCCCCCNC(=O)[C@H](CC(C)C)NC(=O)CNC(=O)c1cc(Cl)ccc1Cl)C(=O)Nc1ccc2[nH]c(Cc3c[nH]c4ccccc34)nc2c1 (stereo in doubt) [TUS-007]
- degradation (knockdown) of the wild-type K-Ras protein (shift of GFP/DsRed ratio graph) (wild-type K-Ras protein; 24 hours after addition, vs control (DMSO)): degradation of the wild-type K-Ras protein was induced
- degradation of the wild-type K-Ras protein when both TUS-007 and MLN2238 were added (wild-type K-Ras protein; MLN2238 co-added, compared with TUS-007 alone): degradation of the wild-type K-Ras protein was inhibited
- degradation of the G12D mutant K-Ras protein when both TUS-007 and MLN2238 were added ([1]; HeLa cells, MLN2238 co-added, compared with TUS-007 alone, FIG. 3): G12D mutant and G12V mutant K-Ras protein degradation was inhibited
- degradation (knockdown) of the G12D mutant K-Ras protein (shift of GFP/DsRed ratio graph) ([1]; HeLa cells, vs control (DMSO), FIG. 3): degradation of the G12D mutant and the G12V mutant K-Ras protein was induced
- comparison of degradation induction among wild-type, G12D mutant and G12V mutant K-Ras protein ([1]; from the results of FIGS. 1 and 3): excellent in inducing the degradation of the G12D mutant K-Ras protein
- increase of the tumor volume (SW1990 cells): the increase of the tumor volume was significantly suppressed (p=0.004)
- LD50 ([2]; single oral dose): > 1000 mg/kg body weight
- general condition of the mice (acute toxicity) ([2]; single oral dose of 80, 300 or 1000 mg/kg body weight): no abnormality in the general condition of the mice
